Laboratory results reported in patent US7241791B2, “Substituted 4-(indazol-3-yl)phenols” (Wyeth, priority 2002, dated 2007).
pIC50: −log10 of the molar value. Where two headings read alike, the source gives them in different places.

Molecular target: T1, human ERα (Homo sapiens, UniProt P03372)
T1 sequence (P03372 1-595): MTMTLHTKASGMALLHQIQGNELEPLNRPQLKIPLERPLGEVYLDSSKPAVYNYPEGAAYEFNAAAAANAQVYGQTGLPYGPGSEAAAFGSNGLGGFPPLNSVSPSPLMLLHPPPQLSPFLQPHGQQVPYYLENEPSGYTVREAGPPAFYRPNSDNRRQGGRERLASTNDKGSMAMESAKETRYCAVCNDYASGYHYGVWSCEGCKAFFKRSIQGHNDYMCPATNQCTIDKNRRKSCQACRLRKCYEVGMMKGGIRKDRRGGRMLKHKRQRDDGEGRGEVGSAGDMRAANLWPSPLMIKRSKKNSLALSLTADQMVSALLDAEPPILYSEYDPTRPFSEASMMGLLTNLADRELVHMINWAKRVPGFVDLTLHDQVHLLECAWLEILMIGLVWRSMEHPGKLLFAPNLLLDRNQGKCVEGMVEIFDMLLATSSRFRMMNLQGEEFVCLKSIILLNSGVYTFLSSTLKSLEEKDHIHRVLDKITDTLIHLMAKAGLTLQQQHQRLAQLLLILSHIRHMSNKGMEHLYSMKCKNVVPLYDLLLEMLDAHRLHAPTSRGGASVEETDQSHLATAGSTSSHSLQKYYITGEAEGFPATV
Assay: NF-κB luciferase reporter (ER/NF-KB-luc) in Ad5-wt-hERα infected HAECT-1 cells
Details: for pIC50: ER/NF-KB-luc IC50, Ad5-wt-ER infected HAECT-1 cells, IL-1β

[1] = HAECT1, read-out: ER/NF-KB-luc % E2, efficacy relative to the maximal inhibition observed with E2
[2] = HAECT1, read-out: ER/NF-KB-luc % E2

For `CCCn1nc(-c2ccc(O)cc2O)c2ccc(O)cc21` [Example 1, 4-(6-hydroxy-1-propyl-1H-indazol-3-yl)benzene-1,3-diol], the Emax [1] was 74%.

In the case of `Oc1ccc(-c2nn(C3CCCC3)c3c(F)cccc23)c(O)c1` [Example 88, 4-(1-cyclopentyl-7-fluoro-1H-indazole-3-yl)benzene-1,3-diol], the pIC50 was 6.38 and the Emax [1] was 74%.

`CS(=O)(=O)c1ccc(-n2nc(-c3ccc(O)cc3O)c3ccc(O)cc32)cc1` [Example 28, 4-{6-hydroxy-1-[4-(methylsulfonyl)phenyl]-1H-indazol-3-yl}benzene-1,3-diol] was tested, and the pIC50 was 6.26 and the Emax [1] was 86%.

`CCCn1nc(-c2ccc(O)cc2C)c2cccc(F)c21` [Example 93, 4-(7-fluoro-1-propyl-1H-indazole-3-yl)-3-methylphenol] was tested, and the pIC50 was 6.89 and the Emax [1] was 60%.

`CCc1ccc(-c2cccc3c(-c4ccc(O)cc4C)nn(C(C)C)c23)cc1` [Example 251, 4-[7-(4-ethylphenyl)-1-isopropyl-1H-indazol-3-yl]-3-methylphenol] showed a pIC50 of 7.62 and an Emax [1] of 57%.

In the case of `Cc1cc(-c2nn(C3CCCC3)c3c(F)cccc23)ccc1O` [Example 63, 4-(1-cyclopentyl-7-fluoro-1H-indazol-3-yl)-2-methylphenol], the pIC50 was 5.73 and the Emax [1] was 158%.

Compound `CCc1ccc(-c2cccc3c(-c4ccc(O)cc4C)nn(C4CCCC4)c23)cc1` [Example 260, 4-[1-cyclopentyl-7-(4-ethylphenyl)-1H-indazol-3-yl]-3-methyl-phenol] has a pIC50 of 7.55 and an Emax [1] of 53%.

Work on `Oc1ccc(-c2nn(C3CCCC3)c3c(-c4ccc(C(F)(F)F)cc4)cccc23)cc1` [Example 237, 4-{1-cyclopentyl-7-[4-(trifluoromethyl)phenyl]-1H-indazol-3-yl}-phenol] yielded a pIC50 of 6.32 and an Emax [1] of 79%.

For `CCCCC/C=C/c1cccc2c(-c3ccc(O)cc3C)nn(C(C)C)c12` [Example 248, 4-{7-[(E)-hept-1-enyl]-1-isopropyl-1H-indazol-3-yl}-3-methyl-phenol], the pIC50 was 6.32 and the Emax [1] was 73%.

With `CCNC(=O)Oc1ccc(-c2nn(C3CCCC3)c3c(F)cccc23)cc1` [Example 118, 4-(1-cyclopentyl-7-fluoro-1H-indazol-3-yl)phenyl ethylcarbamate] the pIC50 was 6.38 and the Emax [2] was 66%.

With `Cc1cc(O)ccc1-c1nn(C(C)C)c2c(-c3ccccc3C)cccc12` [Example 255, 4-[1-isopropyl-7-(2-methylphenyl)-1H-indazol-3-yl]-3-methyl-phenol] the pIC50 was 8.40 and the Emax [1] was 89%.

`CC(C)n1nc(-c2ccc(O)cc2)c2cccc(-c3ccccc3Cl)c21` [Example 234, 4-[7-(2-chlorophenyl)-1-isopropyl-1H-indazol-3-yl]phenol] was tested, and the pIC50 was 7.47 and the Emax [1] was 72%.

`Oc1ccc(-c2nn(-c3cccc(C(F)(F)F)c3)c3cc(O)ccc23)c(O)c1` [Example 26, 4-{6-hydroxy-1-[3-(trifluoromethyl)phenyl]-1H-indazol-3-yl}benzene-1,3-diol] showed a pIC50 of 6.45 and an Emax [1] of 101%.

`Oc1ccc(-c2nn(-c3ccc(Br)cc3)c3c(C(F)(F)F)cccc23)cc1` [Example 31, 4-[1-(4-bromophenyl)-7-(trifluoromethyl)-1H-indazol-3-yl]phenol] gave a pIC50 of 6.20 and an Emax [1] of 120%.

For `Oc1ccc(-c2nn(C3CCC3)c3c(C(F)(F)F)cccc23)c(O)c1` [Example 70, 4-[1-cyclobutyl-7-(trifluoromethyl)-1H-indazol-3-yl]benzene-1,3-diol], the pIC50 was 7.85 and the Emax [1] was 76%.

`CCCn1nc(-c2ccc(O)cc2)c2cccc(C)c21` [Example 37, 4-(7-methyl-1-propyl-1H-indazol-3-yl)phenol] was tested, and the Emax [2] was 95%.

`Cc1cc(O)ccc1-c1nn(C(C)C)c2c(-c3ccc(-c4ccccc4)cc3)cccc12` [Example 252, 4-[7-(1,1′-biphenyl-4-yl)-1-isopropyl-1H-indazol-3-yl]-3-methyl-phenol] was tested, and the pIC50 was 7.25 and the Emax [1] was 59%.

`C=CCn1nc(-c2ccc(O)cc2C)c2cccc(Cl)c21` [Example 82, 4-(1-allyl-7-chloro-1H-indazol-3-yl)-3-methylphenol] showed a pIC50 of 6.72 and an Emax [1] of 68%.

`CSc1ccc(-c2cccc3c(-c4ccc(O)cc4)nn(C(C)C)c23)cc1` [Example 228, 4-{1-isopropyl-7-[4-(methylthio)phenyl]-1H-indazol-3-yl}phenol] showed a pIC50 of 7.12 and an Emax [1] of 83%.

With `Oc1ccc(-c2nn(Cc3ccccc3)c3c(C(F)(F)F)cccc23)c(O)c1` [Example 143, 4-[1-benzyl-7-(trifluoromethyl)-1H-indazol-3-yl]benzene-1,3-diol] the pIC50 was 6.51 and the Emax [1] was 65%.

With `CC(C)n1nc2c(F)cccc2c1-c1ccc(O)cc1O` [Example 89, 4-(7-fluoro-2-isopropyl-2H-indazole-3-yl)benzene-1,3-diol] the pIC50 was 6.36 and the Emax [1] was 97%.

`Cn1nc(-c2ccc(O)cc2)c2cc(F)c(Cl)cc21` [Example 125, 4-(6-chloro-5-fluoro-1-methyl-1H-indazol-3-yl)phenol] was tested, and the pIC50 was 6.32 and the Emax [1] was 128%.

`Oc1ccc(-c2nn(C3CCCC3)c3c(-c4ccccc4Cl)cccc23)cc1` [Example 243, 4-[7-(2-chlorophenyl)-1-cyclopentyl-1H-indazol-3-yl]phenol] gave a pIC50 of 6.85 and an Emax [1] of 83%.

With `CCc1ccc(-c2cccc3c(-c4ccc(O)cc4)nn(C4CCCC4)c23)cc1` [Example 241, 4-[1-cyclopentyl-7-(4-ethylphenyl)-1H-indazol-3-yl]phenol] the pIC50 was 7.49 and the Emax [1] was 60%.

`Cc1cc(O)ccc1-c1nn(C2CCCC2)c2c(-c3ccccc3Cl)cccc12` [Example 262, 4-[7-(2-chlorophenyl)-1-cyclopentyl-1H-indazol-3-yl]-3-methyl-phenol] gave a pIC50 of 8.10 and an Emax [1] of 75%.

`CC(C)Cn1nc(-c2ccc(O)cc2O)c2cccc(C(F)(F)F)c21` [Example 68, 4-[1-isobutyl-7-(trifluoromethyl)-1H-indazol-3-yl]benzene-1,3-diol] was tested, and the pIC50 was 7.25 and the Emax [1] was 74%.

In the case of `Cc1cc(O)ccc1-c1nn(C(C)C)c2c(-c3ccc(CO)cc3)cccc12` [Example 249, 4-{7-[14-(hydroxymethyl)phenyl]-1-isopropyl-1H-indazol-3-yl}-3-methylphenol], the pIC50 was 7.23 and the Emax [1] was 59%.

`CC(C)n1nc(-c2ccc(O)cc2O)c2cccc(Cl)c21` [Example 80, 4-(7-chloro-1-isopropyl-1H-indazol-3-yl)benzene-1,3-diol] gave a pIC50 of 7.74 and an Emax [1] of 48%.

`Oc1ccc(-c2nn(Cc3ccccc3)c3c(C(F)(F)F)cccc23)cc1` [Example 147, 4-[1-benzyl-7-(trifluoromethyl)-1H-indazol-3-yl]phenol] showed an Emax [1] of 65%.

In the case of `Oc1ccc(-c2nn(-c3ccccc3F)c3cc(O)ccc23)c(O)c1` [Example 22, 4-[1-(2-fluorophenyl)-6-hydroxy-1H-indazol-3-yl]benzene-1,3-diol], the pIC50 was 7.30 and the Emax [1] was 73%.

With `CCCn1nc(-c2ccc(O)cc2)c2cccc(Cl)c21` [Example 43, 4-(7-chloro-1-propyl-1H-indazol-3-yl)phenol] the Emax [1] was 79%.

Compound `Oc1ccc(-c2nn(C3CCCC3)c3c(-c4cccs4)cccc23)cc1` [Example 238, 4-(1-cyclopentyl-7-thien-2-yl-1H-indazol-3-yl)phenol] has a pIC50 of 7.96 and an Emax [1] of 74%.

Work on `CC(C)(C)C(=O)Oc1ccc(-c2nn(C3CCCC3)c3c(F)cccc23)cc1` [Example 112, 4-(1-cyclopentyl-7-fluoro-1H-indazol-3-yl)phenyl pivalate] yielded a pIC50 of 6.18 and an Emax [1] of 48%.

In the case of `Cc1cc(O)ccc1-c1nn(C(C)C)c2c(C(F)(F)F)cccc12` [Example 83, 4-[1-isopropyl-7-(trifluoromethyl)-1H-indazole-3-yl]-3-methylphenol], the Emax [1] was 82%.

Compound `Cc1cc(O)ccc1-c1nn(C(C)C)c2c(-c3ccccc3Cl)cccc12` [Example 253, 4-[7-(2-chlorophenyl)-1-isopropyl-1H-indazol-3-yl]-3-methyl-phenol] has a pIC50 of 7.68 and an Emax [1] of 62%.

`Oc1ccc(-c2nn(-c3ccsc3)c3c(Cl)cccc23)cc1` [Example 101, 4-(7-chloro-1-thien-3-yl-1H-indazole-3-yl)phenol] showed a pIC50 of 6.30 and an Emax [1] of 61%.

In the case of `CCCCCn1nc2c(Cl)cccc2c1-c1ccc(O)cc1` [Example 42, 4-[7-chloro-2-pentyl-2H-indazol-3-yl]phenol], the pIC50 was 6.72 and the Emax [1] was 102%.

`Cc1cc(O)ccc1-c1nn(C2CCCC2)c2c(Cl)cccc12` [Example 84, 4-(7-chloro-1-cyclopentyl-1H-indazole-3-yl)-3-methylphenol] was tested, and the pIC50 was 7.44 and the Emax [1] was 75%.

In the case of `CCCn1nc(-c2ccc(O)cc2)c2cccc(-c3ccc(F)cc3)c21` [Example 104, 4-[7-(4-Fluorophenyl)-1-propyl-1H-indazole-3-yl]phenol], the pIC50 was 6.60 and the Emax [1] was 81%.

`CCCn1nc(-c2ccc(O)cc2)c2cccc(N3CCOCC3)c21` [Example 105, 4-(7-Morpholin-4-yl-1-propyl-1H-indazole-3-yl)phenol] showed a pIC50 of 6.04 and an Emax [1] of 66%.
